From patent publication US8415272B2, “Quinoline derivatives and their use as fungicides” (Syngenta Crop Protection LLC, priority 2008, dated 2013)

Assays:
Phytophthora infestans = assay: whole plant or invertebrate; type: in vivo; conditions: in Solanum lycopersicum, foliar, 96 h, read-out: control of fungal infection, Phytophthora infestans
Plasmopara viticola = assay: Leaf disk assay, Plasmopara viticola (downy mildew of grapevine), preventive; type: in vivo; conditions: foliar, 168 h, grapevine leaf disks, assessed seven days after inoculation, read-out: control of fungal infection, Plasmopara viticola
[1] = tested on: Erysiphe graminis f.sp. tritici; assay: Leaf disk assay, Erysiphe graminis f.sp. tritici (wheat powdery mildew), preventive; type: in vivo; conditions: Blumeria graminis, foliar, 96 h, wheat leaf segments, assessed four days after inoculation, read-out: control of fungal infection, Erysiphe graminis f.sp. tritici
Protocol: The compounds were tested in a leaf disk assay, with methods described below. The test compounds were dissolved in DMSO and diluted into water to 200 ppm. In the case of the test on Pythium ultimum, they were dissolved in DMSO and diluted into water to 20 […] graminis f.sp. tritici (wheat powdery mildew): Wheat leaf segments were placed on agar in a 24-well plate and sprayed with a solution of the test compound. After allowing to dry completely, for between 12 and 24 hours, the leaf disks were inoculated with a spore suspension of the fungus. After appropriate incubation the activity of a compound was assessed four days after inoculation as preventive fungicidal activity.

[2] = tested on: Puccinia recondita f.sp. tritici; assay: Leaf disk assay, Puccinia recondita f.sp. tritici (wheat brown rust), preventive; type: in vivo; conditions: foliar, 216 h, wheat leaf segments, assessed nine days after inoculation, read-out: control of fungal infection, Puccinia recondita f.sp. tritici
Septoria nodorum = assay: Leaf disk assay, Septoria nodorum (wheat glume blotch), preventive; type: in vivo; conditions: Parastagonospora nodorum, foliar, 96 h, wheat leaf segments, assessed four days after inoculation, read-out: control of fungal infection, Septoria nodorum
Septoria tritici = assay: Growth inhibition in nutrient broth, Septoria tritici (leaf blotch), photometric; type: cell-based; conditions: Zymoseptoria tritici, PDB broth, 24 C, 72 hrs, read-out: control of fungal infection, Septoria tritici
Pythium ultimum = assay: Growth inhibition in potato dextrose broth, Pythium ultimum (damping off), photometric; type: cell-based; conditions: Globisporangium ultimum, 24° C., 48 hours, read-out: control of fungal infection, Pythium ultimum
Protocol: The compounds were tested in a leaf disk assay, with methods described below. The test compounds were dissolved in DMSO and diluted into water to 200 ppm. In the case of the test on Pythium ultimum, they were dissolved in DMSO and diluted into water to 20 ppm. Pythium ultimum (Damping off): Mycelial fragments of the fungus, prepared from a fresh liquid culture, were mixed into potato dextrose broth. A solution of the test compound in dimethyl sulphoxide was diluted with water to 20 ppm then placed into a 96-well microtiter plate and the nutrient broth containing the fungal spores was added. The test plate was incubated at 24° C. and the inhibition of growth was determined photometrically after 48 hours.

Fusarium culmorum = assay: Growth inhibition in nutrient broth, Fusarium culmorum (root rot), photometric; type: cell-based; conditions: 48 h, read-out: control of fungal infection, Fusarium culmorum
Protocol: The compounds were tested in a leaf disk assay, with methods described below. The test compounds were dissolved in DMSO and diluted into water to 200 ppm. In the case of the test on Pythium ultimum, they were dissolved in DMSO and diluted into water to 20 ppm.
Fusarium culmorum (root rot): Conidia of the fungus from cryogenic storage were directly mixed into nutrient broth (PDB potato dextrose broth). After placing a (DMSO) solution of the test compounds into a microtiter plate (96-well format) the nutrient broth containing the fungal spores was added. The test plates were incubated at 24 C and the inhibition of growth was determined photometrically after 48 hrs.

C#Cc1cnc2ccc(OC(SC)C(=O)NC(C)(C#N)COC)cc2c1 (stereo not drawn) [Example 25]
≥ 60%: pest or weed control at 200 ppm (Phytophthora infestans) | pest or weed control at 200 ppm (Plasmopara viticola) | pest or weed control at 200 ppm [1] | pest or weed control at 200 ppm [2] | pest or weed control at 200 ppm (Septoria nodorum) | inhibition of growth at 60 ppm (Septoria tritici) | inhibition of growth at 20 ppm (Pythium ultimum)

COCC#Cc1cnc2ccc(OC(SC)C(=O)NC(C)(C)C)cc2c1 (stereo not drawn) [Example 42]
≥ 60%: pest or weed control at 200 ppm (Phytophthora infestans) | pest or weed control at 200 ppm (Plasmopara viticola) | pest or weed control at 200 ppm [1] | pest or weed control at 200 ppm [2] | inhibition of growth at 60 ppm (Septoria tritici) | inhibition of growth at 60 ppm (Fusarium culmorum) | inhibition of growth at 20 ppm (Pythium ultimum)

CC#Cc1cnc2ccc(OC(SC)C(=O)NC(C)(C)C)cc2c1 (stereo not drawn) [Example 54]
≥ 60%: pest or weed control at 200 ppm (Phytophthora infestans) | pest or weed control at 200 ppm (Plasmopara viticola) | pest or weed control at 200 ppm [1] | pest or weed control at 200 ppm (Septoria nodorum) | inhibition of growth at 60 ppm (Septoria tritici) | inhibition of growth at 60 ppm (Fusarium culmorum) | inhibition of growth at 20 ppm (Pythium ultimum)

CC#Cc1cnc2ccc(OC(SC)C(=O)NC(C)(C)C#CCOC)cc2c1 (stereo not drawn) [Example 55]
≥ 60%: pest or weed control at 200 ppm (Phytophthora infestans) | pest or weed control at 200 ppm (Plasmopara viticola) | pest or weed control at 200 ppm [1] | pest or weed control at 200 ppm [2] | pest or weed control at 200 ppm (Septoria nodorum) | inhibition of growth at 60 ppm (Septoria tritici) | inhibition of growth at 20 ppm (Pythium ultimum)

C#CC(C)(C)NC(=O)C(Oc1ccc2ncc(C#CC)cc2c1)SC (stereo not drawn) [Example 57]
≥ 60%: pest or weed control at 200 ppm (Phytophthora infestans) | pest or weed control at 200 ppm (Plasmopara viticola) | pest or weed control at 200 ppm (Septoria nodorum) | inhibition of growth at 60 ppm (Septoria tritici) | inhibition of growth at 60 ppm (Fusarium culmorum)

C#Cc1cnc2c(Cl)cc(OC(SC)C(=O)NC(C)(C#N)COC)cc2c1 (stereo not drawn) [Example 64]
≥ 60%: pest or weed control at 200 ppm (Phytophthora infestans) | pest or weed control at 200 ppm (Plasmopara viticola) | pest or weed control at 200 ppm [1] | pest or weed control at 200 ppm [2] | pest or weed control at 200 ppm (Septoria nodorum) | inhibition of growth at 60 ppm (Septoria tritici) | inhibition of growth at 20 ppm (Pythium ultimum)

CSC(Oc1ccc2ncc(C#CBr)cc2c1)C(=O)NC(C)(C)C (stereo not drawn) [Example 69]
≥ 60%: pest or weed control at 200 ppm (Phytophthora infestans) | pest or weed control at 200 ppm (Plasmopara viticola) | inhibition of growth at 60 ppm (Septoria tritici) | inhibition of growth at 60 ppm (Fusarium culmorum) | inhibition of growth at 20 ppm (Pythium ultimum)

C#Cc1cnc2ccc(OC(SC)C(=O)NC(C)(C)CCOC)cc2c1 (stereo not drawn) [Example 85]
≥ 60%: pest or weed control at 200 ppm (Phytophthora infestans) | pest or weed control at 200 ppm (Plasmopara viticola) | pest or weed control at 200 ppm [1] | pest or weed control at 200 ppm [2] | pest or weed control at 200 ppm (Septoria nodorum) | inhibition of growth at 60 ppm (Septoria tritici) | inhibition of growth at 20 ppm (Pythium ultimum)

C#Cc1cnc2ccc(OC(OC)C(=O)NC(C)(C)C#CC)cc2c1 (stereo not drawn) [Example 86]
≥ 60%: pest or weed control at 200 ppm (Phytophthora infestans) | pest or weed control at 200 ppm (Plasmopara viticola) | pest or weed control at 200 ppm [1] | pest or weed control at 200 ppm [2] | pest or weed control at 200 ppm (Septoria nodorum) | inhibition of growth at 60 ppm (Septoria tritici)

C#Cc1cnc2ccc(OC(SC)C(=O)NC(C)(COC)COC)cc2c1 (stereo not drawn) [Example 88]
≥ 60%: pest or weed control at 200 ppm (Phytophthora infestans) | pest or weed control at 200 ppm (Plasmopara viticola) | pest or weed control at 200 ppm [1] | pest or weed control at 200 ppm [2] | pest or weed control at 200 ppm (Septoria nodorum) | inhibition of growth at 60 ppm (Septoria tritici) | inhibition of growth at 20 ppm (Pythium ultimum)

C#Cc1cnc2cc(F)c(OC(SC)C(=O)NC(C)(C)C(=O)OC)cc2c1 (stereo not drawn) [Example 105]
≥ 60%: pest or weed control at 200 ppm (Phytophthora infestans) | pest or weed control at 200 ppm (Plasmopara viticola) | pest or weed control at 200 ppm [1] | pest or weed control at 200 ppm [2] | pest or weed control at 200 ppm (Septoria nodorum) | inhibition of growth at 60 ppm (Septoria tritici)

C#Cc1cnc2ccc(OC(CC)C(=O)NC(C)(C)CO)cc2c1 (stereo not drawn) [Example 110]
≥ 60%: pest or weed control at 200 ppm (Phytophthora infestans) | pest or weed control at 200 ppm [1] | pest or weed control at 200 ppm (Septoria nodorum) | inhibition of growth at 60 ppm (Septoria tritici) | inhibition of growth at 60 ppm (Fusarium culmorum) | inhibition of growth at 20 ppm (Pythium ultimum)

C#Cc1cnc2c(C)cc(OC(CC)C(=O)NC(C)(C)CO)cc2c1 (stereo not drawn) [Example 111]
≥ 60%: pest or weed control at 200 ppm (Phytophthora infestans) | pest or weed control at 200 ppm (Plasmopara viticola) | pest or weed control at 200 ppm [1] | pest or weed control at 200 ppm (Septoria nodorum) | inhibition of growth at 60 ppm (Septoria tritici) | inhibition of growth at 60 ppm (Fusarium culmorum) | inhibition of growth at 20 ppm (Pythium ultimum)

C#Cc1cnc2c(C)cc(OC(CC)C(=O)NC(C)(C)C#CCOC)cc2c1 (stereo not drawn) [Example 112]
≥ 60%: pest or weed control at 200 ppm (Phytophthora infestans) | pest or weed control at 200 ppm (Plasmopara viticola) | pest or weed control at 200 ppm [1] | pest or weed control at 200 ppm [2] | pest or weed control at 200 ppm (Septoria nodorum) | inhibition of growth at 60 ppm (Septoria tritici)

C#Cc1cnc2c(Cl)cc(OC(SC)C(=O)NC(C)(C)C#CCCCCl)cc2c1 (stereo not drawn) [Example 123]
≥ 60%: pest or weed control at 200 ppm (Phytophthora infestans) | pest or weed control at 200 ppm (Plasmopara viticola) | pest or weed control at 200 ppm [1] | pest or weed control at 200 ppm [2] | pest or weed control at 200 ppm (Septoria nodorum) | inhibition of growth at 60 ppm (Septoria tritici)

C#Cc1cnc2ccc(OC(OC)C(=O)NC(C)(C)C#C)cc2c1 (stereo not drawn) [Example 124]
≥ 60%: pest or weed control at 200 ppm (Phytophthora infestans) | pest or weed control at 200 ppm (Plasmopara viticola) | pest or weed control at 200 ppm [1] | pest or weed control at 200 ppm (Septoria nodorum) | inhibition of growth at 60 ppm (Septoria tritici) | inhibition of growth at 60 ppm (Fusarium culmorum) | inhibition of growth at 20 ppm (Pythium ultimum)

C#Cc1cnc2ccc(OC(OC)C(=O)NC(C)(C)C#CCOC)cc2c1 (stereo not drawn) [Example 125]
≥ 60%: pest or weed control at 200 ppm (Phytophthora infestans) | pest or weed control at 200 ppm (Plasmopara viticola) | pest or weed control at 200 ppm [1] | inhibition of growth at 60 ppm (Septoria tritici) | inhibition of growth at 60 ppm (Fusarium culmorum) | inhibition of growth at 20 ppm (Pythium ultimum)

C#Cc1cnc2c(C)cc(OC(SC)C(=O)NC(C)(C=O)COC)cc2c1 (stereo not drawn) [Example 134]
≥ 60%: pest or weed control at 200 ppm (Phytophthora infestans) | pest or weed control at 200 ppm (Plasmopara viticola) | pest or weed control at 200 ppm [1] | pest or weed control at 200 ppm [2] | pest or weed control at 200 ppm (Septoria nodorum) | inhibition of growth at 60 ppm (Septoria tritici)

C#CCOCC(C)(COCC#C)NC(=O)C(Oc1ccc2ncc(C#C)cc2c1)SC (stereo not drawn) [Example 165]
≥ 60%: pest or weed control at 200 ppm (Phytophthora infestans) | pest or weed control at 200 ppm (Plasmopara viticola) | pest or weed control at 200 ppm [1] | pest or weed control at 200 ppm [2] | pest or weed control at 200 ppm (Septoria nodorum) | inhibition of growth at 60 ppm (Septoria tritici) | inhibition of growth at 20 ppm (Pythium ultimum)

C#Cc1cnc2cc(F)c(OC(SC)C(=O)NC(C)(C)C#CCC)cc2c1 (stereo not drawn) [Example 190]
≥ 60%: pest or weed control at 200 ppm (Phytophthora infestans) | pest or weed control at 200 ppm (Plasmopara viticola) | inhibition of growth at 60 ppm (Fusarium culmorum) | inhibition of growth at 20 ppm (Pythium ultimum)

C#Cc1cnc2cc(F)c(OC(CC)C(=O)NC(C)(C)C=O)cc2c1 (stereo not drawn) [Example 193]
≥ 60%: pest or weed control at 200 ppm (Phytophthora infestans) | pest or weed control at 200 ppm (Plasmopara viticola) | inhibition of growth at 60 ppm (Fusarium culmorum) | inhibition of growth at 20 ppm (Pythium ultimum)

C#Cc1cnc2ccc(OC(SC)C(=O)NCC#N)cc2c1 (stereo not drawn) [Example 196]
≥ 60%: pest or weed control at 200 ppm (Phytophthora infestans) | pest or weed control at 200 ppm (Plasmopara viticola) | pest or weed control at 200 ppm [1] | pest or weed control at 200 ppm (Septoria nodorum) | inhibition of growth at 60 ppm (Septoria tritici) | inhibition of growth at 60 ppm (Fusarium culmorum) | inhibition of growth at 20 ppm (Pythium ultimum)

C#Cc1cnc2ccc(OC(SC)C(=O)NC(C)(C)CC#N)cc2c1 (stereo not drawn) [Example 197]
≥ 60%: pest or weed control at 200 ppm (Phytophthora infestans) | pest or weed control at 200 ppm (Plasmopara viticola) | inhibition of growth at 60 ppm (Fusarium culmorum) | inhibition of growth at 20 ppm (Pythium ultimum)

C#Cc1cnc2c(F)cc(OC(SC)C(=O)NC(C)(C)C)cc2c1 (stereo not drawn) [Example 201]
≥ 60%: pest or weed control at 200 ppm (Phytophthora infestans) | pest or weed control at 200 ppm (Plasmopara viticola) | pest or weed control at 200 ppm [1] | pest or weed control at 200 ppm (Septoria nodorum) | inhibition of growth at 60 ppm (Septoria tritici) | inhibition of growth at 60 ppm (Fusarium culmorum) | inhibition of growth at 20 ppm (Pythium ultimum)

C#Cc1cnc2ccc(OC(SC)C(=O)NC(C)(C#C)CC)cc2c1 (stereo not drawn) [Example 205]
≥ 60%: pest or weed control at 200 ppm (Phytophthora infestans) | pest or weed control at 200 ppm (Plasmopara viticola) | pest or weed control at 200 ppm [1] | inhibition of growth at 60 ppm (Fusarium culmorum) | inhibition of growth at 20 ppm (Pythium ultimum)

C#Cc1cnc2ccc(OC(SC)C(=O)NC(C#C)(CC)CC)cc2c1 (stereo not drawn) [Example 207]
≥ 60%: pest or weed control at 200 ppm (Phytophthora infestans) | pest or weed control at 200 ppm (Plasmopara viticola) | pest or weed control at 200 ppm [1] | pest or weed control at 200 ppm [2] | inhibition of growth at 60 ppm (Fusarium culmorum) | inhibition of growth at 20 ppm (Pythium ultimum)
